In patent publication US8476253B2, “Amide derivative” (Daiichi Sankyo Company, Limited, priority 2009, dated 2013):
Where a name gives a salt, the structure may show the parent alone. Read-outs that look alike come from different tables or passages of the source.

How the values were obtained:
substance P receptor = target: T1, substance P receptor (Cavia porcellus, UniProt P30547); test: Test for binding to guinea-pig substance P receptor (crude lung membrane sample)
T1 construct: A preparation of a crude lung membrane sample was prepared; from tissue; host or cells: guinea-pig lung (crude membrane sample)
T1 sequence (P30547 whole entry): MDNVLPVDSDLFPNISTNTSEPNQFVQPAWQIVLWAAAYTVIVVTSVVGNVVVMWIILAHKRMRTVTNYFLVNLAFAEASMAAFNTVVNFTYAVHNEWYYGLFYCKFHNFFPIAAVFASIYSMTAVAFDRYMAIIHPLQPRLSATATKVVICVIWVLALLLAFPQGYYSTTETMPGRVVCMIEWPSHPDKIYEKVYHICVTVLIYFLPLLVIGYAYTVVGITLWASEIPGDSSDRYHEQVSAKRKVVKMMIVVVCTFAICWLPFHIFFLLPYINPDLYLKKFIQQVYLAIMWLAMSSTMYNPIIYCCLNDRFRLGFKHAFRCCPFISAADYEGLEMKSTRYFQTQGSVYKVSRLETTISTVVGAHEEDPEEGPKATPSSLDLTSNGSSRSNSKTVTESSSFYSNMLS
Description: A preparation of a crude lung membrane sample was prepared, and a test for binding of a test substance to the sample was performed according to the method described in EP0336230A2.
The binding effect of the test substance to a substance P receptor was calculated as an affinity (Ki) of the test substance for the substance P receptor from a 50% binding concentration (IC50) and an affinity (Kd) of [^3H]substance P for the substance P receptor.

neurokinin NK1 receptor = target: T2, neurokinin NK1 receptor (Cavia porcellus, UniProt P30547); test: Effect of suppressing substance P-induced airway contraction (in vivo, intratracheal administration); design: species or system guinea pig; details: guinea pig; guinea pigs, intratracheal administration 60 minutes before 20 μg/kg i.v. SP; AUC of increase in airway pressure over 10 minutes; read-out: ID50 (the source's name)
T2 construct: Using healthy guinea pigs (body weight, 350 to 550 g; Hartley male guinea pigs); from tissue; host or cells: live anaesthetised Hartley male guinea pigs (airway, in vivo)
T2 sequence (P30547 whole entry): as above
Description: (§1) Using healthy guinea pigs (body weight, 350 to 550 g; Hartley male guinea pigs), the effect of suppressing airway contraction induced by substance P (SP), which is an NK1 receptor agonist, was examined by a modified method of Konzett-Roessler (Naunyn-Schmiedebergs Arch. Exp. Pathol. Pharmakol. 195, 71 [1940]) using airway pressure as an indicator.
(§2) A tracheal cannula and a venous cannula were attached to a guinea pig anesthetized with pentobarbital (50 mg/mL solution, 0.40 to 0.50 mL/body, subcutaneous administration). An arterial cannula filled with heparin-containing physiological saline (100 U/mL) was further attached, and blood pressure and heart rate were monitored via an amplifier and an instantaneous heart rate meter. Subsequently, gallamine (20 mg/body, intravenous administration) was administered to terminate spontaneous breathing, and then 10 mL/kg of positive pressure breathing (Ugo-Basile Biological Research Apparatus, Cat. No. 7025) was rapidly performed at 60 times/min. The airway pressure during artificial breathing was detected with a pressure transducer (TP-200T or TP-400T; Nihon Kohden Corporation) attached to a side branch of the tracheal cannula, amplified (AP-601G; Nihon Kohden Corporation), and recorded in a recorder. After the airway pressure, blood pressure, and heart rate were stabilized, 20 μg/kg of SP was intravenously administered from the venous cannula to induce airway contraction, and the airway pressure was measured for the following 10 minutes.
The test substance was dissolved in a 5% glucose solution, a 0.5 mL/kg solution was intratracheally administered with an intratracheal administration apparatus (model 1A-1B; Penn-Century, Inc.) 60 minutes before stimulation with SP.
(§3) The AUC of increase in the airway pressure over 10 minutes after administration of SP was determined as the intensity of SP-induced airway contraction and calculated as an ID50 value from the inhibition rate based on the value of the control group (5% glucose solution intratracheal administration group).

neurokinin NK2 receptor = target: T3, neurokinin NK2 receptor (Cavia porcellus, UniProt Q64077); test: Effect of suppressing neurokinin A-induced airway contraction (in vivo, intratracheal administration); design: species or system guinea pig; details: guinea pig; guinea pigs, intratracheal administration 60 minutes before 4 μg/kg i.v. NKA; AUC of increase in airway pressure over 10 minutes; read-out: ID50 (the source's name)
T3 construct: Using healthy guinea pigs (body weight, 350 to 550 g; Hartley male guinea pigs); from tissue; host or cells: live anaesthetised Hartley male guinea pigs (airway, in vivo)
T3 sequence (Q64077 1-402): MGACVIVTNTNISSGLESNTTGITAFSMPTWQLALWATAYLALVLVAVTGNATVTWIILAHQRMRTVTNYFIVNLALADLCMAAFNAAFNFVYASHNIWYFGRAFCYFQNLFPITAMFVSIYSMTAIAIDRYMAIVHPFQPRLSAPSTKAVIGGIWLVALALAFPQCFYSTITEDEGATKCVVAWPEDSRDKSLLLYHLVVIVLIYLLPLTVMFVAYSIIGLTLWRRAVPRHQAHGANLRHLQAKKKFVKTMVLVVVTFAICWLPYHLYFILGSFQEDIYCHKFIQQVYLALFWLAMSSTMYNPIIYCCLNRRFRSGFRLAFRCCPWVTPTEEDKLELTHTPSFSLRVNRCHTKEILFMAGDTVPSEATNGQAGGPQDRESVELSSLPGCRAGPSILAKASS
Description: as §1, with “neurokinin A (NKA),” for “substance P (SP),”, “NK2” for “NK1”
as §2, with “and” for “and then”, “stabilized, 4” for “stabilized, 20”, “of NKA” for “of SP”
The test substance was dissolved in a 5% glucose solution, and a 0.5 mL/kg solution was intratracheally administered with an intratracheal administration apparatus (model 1A-1B; Penn-Century, Inc.) 60 minutes before stimulation with NKA.
as §3, with “NKA” for “SP”, “NKA-induced” for “SP-induced”

[1] = crude guinea-pig lung membrane sample, [3H]substance P, Ki from IC50 and Kd, read-out: Ki

With `CN(CCN1CCC(OC(=O)Nc2ccccc2-c2ccccc2)CC1)C(=O)CCCCN(C)c1ccc(C(=O)N(C)CCCN(C)C(=O)CO[C@H]2Cc3ccccc3C23CCN(CC[C@@]2(c4ccc(F)cc4)CN(C(=O)c4cc(C(F)(F)F)cc(C(F)(F)F)c4)CO2)CC3)cc1` [Example 38, 1-{2-[{5-[{4-[{3-[({[(2S)-1′-{2-[(5R)-3-[3,5-Bis(trifluoromethyl)benzoyl]-5-(4-fluorophenyl)-1,3-oxazolidin-5-yl]ethyl}-2,3-dihydrospiro[indene-1,4′-piperidin]-2-yl]oxy}acetyl)(methy)amino]propyl}(methyl)carbamoyl]phenyl}(methyl)amino]pentanoyl}(methyl)amino]ethyl}piperidin-4-yl biphenyl-2-ylcarbamate trihydrochloride] the Ki (substance P receptor; [1]) was 1.5 nM, the ED50 (neurokinin NK1 receptor) was 0.0161 mg/kg and the ED50 (neurokinin NK2 receptor) was 0.0253 mg/kg.

`CN(CCN1CCC(OC(=O)Nc2ccccc2-c2ccccc2)CC1)C(=O)CCCNc1ccc(C(=O)N(C)CCCN(C)C(=O)CO[C@H]2Cc3ccccc3C23CCN(CC[C@@]2(c4ccc(F)cc4)CN(C(=O)c4cc(C(F)(F)F)cc(C(F)(F)F)c4)CO2)CC3)cc1` [Example 34, 1-(2-{[4-({4-[{3-[({[(2S)-1′-{2-[(5R)-3-[3,5-Bis(trifluoromethyl)benzoyl]-5-(4-fluorophenyl)-1,3-oxazolidin-5-yl]ethyl}-2,3-dihydrospiro[indene-1,4′-piperidin]-2-yl]oxy}acetyl)(methyl)amino]propyl}(methyl)carbamoyl]phenyl}amino)butanoyl](methyl)amino}ethyl)piperidin-4-yl biphenyl-2-ylcarbamate trihydrochloride] gave a Ki (substance P receptor; [1]) of 1 nM, an ED50 (neurokinin NK1 receptor) of 0.0308 mg/kg and an ED50 (neurokinin NK2 receptor) of 0.03 mg/kg.

In the case of `Cc1cc(NCCCCCC(=O)N(C)CCN2CCC(OC(=O)Nc3ccccc3-c3ccccc3)CC2)ccc1C(=O)N(C)CCCN(C)C(=O)CO[C@H]1Cc2ccccc2C12CCN(CC[C@@]1(c3ccc(F)cc3)CN(C(=O)c3cc(C(F)(F)F)cc(C(F)(F)F)c3)CO1)CC2` [Example 18, 1-(2-{[6-({4-[{3-[({[(2S)-1′-{2-[(5R)-3-[3,5-Bis(trifluoromethyl)benzoyl]-5-(4-fluorophenyl)-1,3-oxazolidin-5-yl]ethyl}-2,3-dihydrospiro[indene-1,4′-piperidin]-2-yl]oxy}acetyl)(methyl)amino]propyl}(methyl)carbamoyl]-3-methylphenyl}amino)hexanoyl](methyl)amino}ethyl)piperidin-4-yl biphenyl-2-ylcarbamate trihydrochloride], the Ki (substance P receptor; [1]) is reported as 1.8 nM, the ED50 (neurokinin NK1 receptor) is reported as 0.0614 mg/kg and the ED50 (neurokinin NK2 receptor) is reported as 0.0453 mg/kg.

Work on `CN(CCCCCC(=O)N(C)CCN1CCC(OC(=O)Nc2ccccc2-c2ccccc2)CC1)Cc1ccc(C(=O)N(C)CCCN(C)C(=O)CO[C@H]2Cc3ccccc3C23CCN(CC[C@@]2(c4ccc(F)cc4)CN(C(=O)c4cc(C(F)(F)F)cc(C(F)(F)F)c4)CO2)CC3)cc1` [Example 74, 1-{2-[{6-[{4-[{3-[({[(2S)-1′-{2-[(5R)-3-[3,5-Bis(trifluoromethyl)benzoyl]-5-(4-fluorophenyl)-1,3-oxazolidin-5-yl]ethyl}-2,3-dihydrospiro[indene-1,4′-piperidin]-2-yl]oxy}acetyl)(methyl)amino]propyl}(methyl)carbamoyl]benzyl}(methyl)amino]hexanoyl}(methyl)amino]ethyl}piperidin-4-yl biphenyl-2-ylcarbamate] yielded a Ki (substance P receptor; [1]) of 0.87 nM, an ED50 (neurokinin NK1 receptor) of 0.0174 mg/kg and an ED50 (neurokinin NK2 receptor) of 0.0127 mg/kg.

`CN(CCN1CCC(OC(=O)Nc2ccccc2-c2ccccc2)CC1)C(=O)CCNc1ccc(C(=O)N(C)CCCN(C)C(=O)CO[C@H]2Cc3ccccc3C23CCN(CC[C@@]2(c4ccc(F)cc4)CN(C(=O)c4cc(C(F)(F)F)cc(C(F)(F)F)c4)CO2)CC3)cc1` [Example 94, 1-{2-[(N-{4-[{3-[({[(2S)-1′-{2-[(5R)-3-[3,5-Bis(trifluoromethyl)benzoyl]-5-(4-fluorophenyl)-1,3-oxazolidin-5-yl]ethyl}-2,3-dihydrospiro[indene-1,4′-piperidin]-2-yl]oxy}acetyl)(methyl)amino]propyl}(methyl)carbamoyl]phenyl}-β-alanyl)(methyl)amino]ethyl}piperidin-4-yl biphenyl-2-ylcarbamate] was tested, and the Ki (substance P receptor; [1]) was 0.81 nM, the ED50 (neurokinin NK1 receptor) was 0.0087 mg/kg and the ED50 (neurokinin NK2 receptor) was 0.0431 mg/kg.

`CN(CCN1CCC(OC(=O)Nc2ccccc2-c2ccccc2)CC1)C(=O)CCN(C)c1ccc(C(=O)N(C)CCCN(C)C(=O)CO[C@H]2Cc3ccccc3C23CCN(CC[C@@]2(c4ccc(F)cc4)CN(C(=O)c4cc(C(F)(F)F)cc(C(F)(F)F)c4)CO2)CC3)cc1` [Example 95, 1-{2-[(N-{4-[{3-[({[(2S)-1′-{2-[(5R)-3-[3,5-Bis(trifluoromethyl)benzoyl]-5-(4-fluorophenyl)-1,3-oxazolidin-5-yl]ethyl}-2,3-dihydrospiro[indene-1,4′-piperidin]-2-yl]oxy}acetyl)(methy)amino]propyl}(methyl)carbamoyl]phenyl}-N-methyl-β-alanyl)(methyl)amino]ethyl}piperidin-4-yl biphenyl-2-ylcarbamate] was tested, and the Ki (substance P receptor) was 1.4 nM, the ED50 (neurokinin NK1 receptor) was 0.0225 mg/kg and the ED50 (neurokinin NK2 receptor) was 0.039 mg/kg.

`CN(CCN1CCC(OC(=O)Nc2ccccc2-c2ccccc2)CC1)C(=O)CCCCCNc1cccc(C(=O)N(C)CCCN(C)C(=O)CO[C@H]2Cc3ccccc3C23CCN(CC[C@@]2(c4ccc(F)cc4)CN(C(=O)c4cc(C(F)(F)F)cc(C(F)(F)F)c4)CO2)CC3)c1` [Example 43, 1-(2-{[6-({3-[{3-[({[(2S)-1′-{2-[(5R)-3-[3,5-Bis(trifluoromethyl)benzoyl]-5-(4-fluorophenyl)-1,3-oxazolidin-5-yl]ethyl}-2,3-dihydrospiro[indene-1,4′-piperidin]-2-yl]oxy}acetyl)(methyl)amino]propyl}(methyl)carbamoyl]phenyl}amino)hexanoyl](methyl)amino}ethyl)piperidin-4-yl biphenyl-2-ylcarbamate trihydrochloride] showed a Ki (substance P receptor; [1]) of 1.6 nM, an ED50 (neurokinin NK1 receptor) of 0.0766 mg/kg and an ED50 (neurokinin NK2 receptor) of 0.0241 mg/kg.
